In publication PMC5607265, “Design, synthesis and structure-activity relationship of 3,6-diaryl-7H-[1,2,4]triazolo[3,4-b][1,3,4]thiadiazines as novel tubulin inhibitors” (Scientific Reports, 2017):
Entries after “also recorded” stand apart in the source; their conditions may differ.

Key:
[1] = system: fibrosarcoma HT-1080 cells; experiment: MTT antiproliferative assay, HT-1080; format: cell-based, human; conditions: Homo sapiens, HT-1080; MTT assay, 24 h exposure, triplicate; read-out: IC50 HT-1080
Protocol: (§1) The SGC-7901, A549 and HT-1080 cell lines were purchased from the American Type Culture Collection (ATCC, Manassas, VA, USA). […] Briefly, approximately 3 × 10^4 cells were seeded in a 96-well plate. After 24 h of incubation at 37 °C, cells were exposed to compounds of differing concentrations for 24 h. After treatment, cells were washed with 1X PBS followed by addition of 100 µL of 0.05% MTT reagent to each well, followed by incubation for 4 h at 37 °C. After incubation, the supernatant from each well was carefully removed and the formazan crystals were dissolved in 100 µL of DMSO. The colour density was measured spectrophotometrically at 490 nm using a microplate reader (SpectraMax Plus384, Molecular Devices Corp., USA). The data were calculated and plotted as percent viability compared to control.
as §1

[2] = system: SGC-7901, A549 and HT-1080 cell lines; experiment: MTT antiproliferative assay, span over the three cell lines; format: cell-based, human; conditions: MTT assay; for IC50: Homo sapiens, range over SGC-7901, A549 and HT-1080, read-out: IC50 range against the three human cancer cell lines
Protocol: as §1, §1

SGC-7901 cells = experiment: Cell cycle analysis by flow cytometry; format: cell-based, human; conditions: for cell cycle arrest: SGC-7901, 12 h, 6i 0.011, 0.022, 0.044 µM, CA-4 0.022 µM
Protocol: Thus, the effect of compound 6i on the cell cycle progression of the SGC-7901 cells was investigated by flow cytometry analysis (Fig. 5). […] Compound 6i could arrest cell cycle distribution at the G2/M phase in a dose-dependent manner.
Figure 5 Compound 6i affects the cell cycle progression in SGC-7901 cells.
Cell cycle analysis studies were performed by following a previously reported method. […] The cells were collected by centrifugation, washed with PBS and fixed in ice-cold 70% ethanol. The fixed cells were harvested by centrifugation and resuspended in 500 µl of PBS containing 1 mg/mL RNase. After 30 min of incubation at 37 °C, the cells were stained with […] propidium iodide (PI) at 4 °C in the dark for 30 min. The samples were then analyzed by FACScan flow cytometry (Becton-Dickinson, Franklin Lakes, NJ, USA). The experiments were repeated at least three times.
The cells were collected by centrifugation, washed with PBS and fixed in ice-cold 70% ethanol. The fixed cells were harvested by centrifugation and resuspended in 500 µl of PBS containing 1 mg/mL RNase. After 30 min of incubation at 37°C, the cells were stained with […] propidium iodide (PI) at 4°C in the dark for 30 min. The samples were then analyzed by FACScan flow cytometry (Becton-Dickinson, Franklin Lakes, NJ, USA). The experiments were repeated at least three times.
Figure S1 Compound 6i induced G2/M phase arrest in a time-dependent manner. SGC-7901 cells were treated with 6i (0.022 µM) for time 12, 24, 36, 48 and 60 h, then stained with PI and subjected to flow cytometric analysis.

[3] = system: lung adenocarcinoma A549 cells; experiment: MTT antiproliferative assay, A549; format: cell-based, human; conditions: Homo sapiens, A549; MTT assay, 24 h exposure, triplicate; read-out: IC50 A549
Protocol: as §1, §1

[4] = biological target: T1, highly purified tubulin from porcine brain (Sus scrofa, UniProt P02554); experiment: Tubulin polymerization assay; format: biochemical; conditions: 37 °C; for effect on tubulin polymerization in words: CA-4 0.5-4 µM, 6i 0.1-8.0 µM, paclitaxel 5.0 µM
T1 construct: highly purified tubulin from porcine brain; purchased Cytoskeleton BK011P; host or cells: porcine brain (tissue-purified)
T1 sequence (P02554 whole entry): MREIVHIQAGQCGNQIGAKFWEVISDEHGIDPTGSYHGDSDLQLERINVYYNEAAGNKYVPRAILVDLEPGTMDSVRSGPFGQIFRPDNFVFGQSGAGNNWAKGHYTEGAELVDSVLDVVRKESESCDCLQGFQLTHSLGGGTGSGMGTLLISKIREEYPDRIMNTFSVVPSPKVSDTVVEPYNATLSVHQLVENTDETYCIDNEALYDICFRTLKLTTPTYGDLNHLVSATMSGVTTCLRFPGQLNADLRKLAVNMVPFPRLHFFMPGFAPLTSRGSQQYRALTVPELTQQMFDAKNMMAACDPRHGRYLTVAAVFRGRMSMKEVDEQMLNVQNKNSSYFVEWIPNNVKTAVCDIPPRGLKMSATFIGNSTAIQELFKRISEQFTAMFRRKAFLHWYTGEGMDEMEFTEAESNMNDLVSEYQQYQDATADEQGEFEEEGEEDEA
T1 sequence (P02550 whole entry partner): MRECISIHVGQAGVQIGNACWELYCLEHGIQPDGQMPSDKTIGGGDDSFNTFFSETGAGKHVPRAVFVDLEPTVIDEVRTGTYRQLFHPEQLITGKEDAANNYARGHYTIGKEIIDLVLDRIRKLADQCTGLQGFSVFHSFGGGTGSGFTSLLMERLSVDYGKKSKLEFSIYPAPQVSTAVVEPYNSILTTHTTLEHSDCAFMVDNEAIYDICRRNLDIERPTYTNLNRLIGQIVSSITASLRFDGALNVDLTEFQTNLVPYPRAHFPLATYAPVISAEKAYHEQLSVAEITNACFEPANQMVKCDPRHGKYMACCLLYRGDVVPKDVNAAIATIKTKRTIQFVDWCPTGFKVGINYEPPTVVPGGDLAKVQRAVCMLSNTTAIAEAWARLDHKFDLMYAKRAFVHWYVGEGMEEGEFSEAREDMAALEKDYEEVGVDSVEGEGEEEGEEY
Protocol: This assay uses highly purified tubulin from porcine brain.
The reaction was monitored at 37 °C.
(§2) Tubulin polymerization assay[33] was conducted with reagents as described in the kit manufacturer (Cytoskeleton, Cat.#BK011P) in a 96-well plate. In brief, tubulin was re-suspended in ice-cold G-PEM buffer (80 mM PIPES, 2 mM MgCl2, 0.5 mM EGTA, 1 mM GTP, 20% (v/v) glycerol) and added to wells on a 96-well plate containing the designated concentration of drugs or vehicle. Samples were mixed well, and tubulin assembly was monitored (emission wavelength: 450 ± 20 nm; excitation wavelength: 360 ± 20 nm) at 1 min intervals for 90 min at 37 °C in a SpectraMax 340PC spectrophotometer (Biotek Synergy HT, Winooskin, VT, USA). IC50 values were calculated from data at the 20 min time point using GraphPad Prism software. Experiments were repeated three times.
as §2, with “assay” for “assay[33]”, “450±20” for “450 ± 20”, “360±20” for “360 ± 20”, “timepoint” for “time point”

SMILES	IC50 [1]	IC50 [2]	cell cycle arrest (SGC-7901 cells)	IC50 [3]	effect on tubulin polymerization in words [4]	antiproliferative activity in words ([2]; SGC-7901, A549 and HT-1080)	apoptosis after G2/M arrest (sub-G1) (SGC-7901 cells; SGC-7901, 6i 0.022 µM, 12-60 h)	IC50 ([4]; data at the 20 min time point, read-out: IC50 of tubulin polymerization inhibition)
COc1ccc(/C=C\c2cc(OC)c(OC)c(OC)c2)cc1O [CA-4, Combretastatin A-4, reference compound]	13 nM	9 to 13 nM	potent cell cycle arrests in G2/M phase	9 nM	dose-dependent inhibition of tubulin polymerization	–	–	–
COc1cccc(-c2nnc3n2N=C(c2ccc(OC)c(N)c2)CS3)c1 [Compound 6i, 3-(3-Methoxyphenyl)-6-(3-amino-4-methoxyphenyl)-7H-[1,2,4]triazolo[3,4-b][1,3,4]thiadiazine]	14 nM	11 to 15 nM	induced cell arrest in G2/M phase from 0 to 12 h; also recorded: potent cell cycle arrests in G2/M phase	15 nM	dose-dependent inhibition of tubulin polymerization	nanomolar IC50 values against all tested cells; also recorded: IC50 values at the nanomolar level	sub-G1 phase increase from 24 to 60 h; also recorded: cause subsequent apoptosis after G2/M arrest	1600 nM
